Results taken from patent publication US20250098679A1, “HERBICIDAL PYRIDONE DERIVATIVES” (SYNGENTA CROP PROTECTION AG, priority 2021, published 2025).

Key:
Format in all cases: in vivo
[1] = test system: Echinochloa crus-galli (ECHCG); assay: Pre-emergence Test, Echinochloa crus-galli (ECHCG); details: evaluated after 13 days
[2] = test system: Amaranthus palmeri (AMAPA); assay: Post-emergence Test, Amaranthus palmeri (AMAPA); parameters: key: 5=81-100%, 4=61-80%, 3=41-60%, 2=21-40%, 1=0-20% damage; details: evaluated after 13 days
Outline: (§1)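 Scores are percentage plant damage on a 1–5 scale (1=0-20%, 2=21-40%, 3=41-60%, 4=61-80%, 5=81-100%), read 13 days after treatment. Pots received a spray at 1000 g/ha unless otherwise stated, formulated in acetone/water (50:50) containing 0.5% Tween 20.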

[3] = test system: Ipomoea hederacea (IPOHE); assay: Pre-emergence Test, Ipomoea hederacea (IPOHE); details: evaluated after 13 days
[4] = test system: Amaranthus retoflexus (AMARE); assay: Pre-emergence Test, Amaranthus retoflexus (AMARE); details: evaluated after 13 days
Zea mays (ZEAMX) [5] = assay: Pre-emergence Test, Zea mays (ZEAMX); details: evaluated after 13 days
[6] = test system: Ipomoea hederacea (IPOHE); assay: Post-emergence Test, Ipomoea hederacea (IPOHE); parameters: key to percentage damage caused to the plant, IPOHE (five-point scale): 5=81-100%, 4=61-80%, 3=41-60%, 2=21-40%, 1=0-20% damage; details: 1000 g/ha, evaluated after 13 days
Outline: as §1

[7] = test system: Amaranthus palmeri (AMAPA); assay: Pre-emergence Test, Amaranthus palmeri (AMAPA); details: evaluated after 13 days
[8] = test system: Echinochloa crus-galli (ECHCG); assay: Post-emergence Test, Echinochloa crus-galli (ECHCG); parameters: key to percentage damage caused to the plant, ECHCG (five-point scale): 5=81-100%, 4=61-80%, 3=41-60%, 2=21-40%, 1=0-20% damage; details: evaluated after 13 days
Outline: as §1

Setaria faberi (SETFA) [9] = assay: Post-emergence Test, Setaria faberi (SETFA); parameters: key to percentage damage caused to the plant, SETFA (five-point scale): 5=81-100%, 4=61-80%, 3=41-60%, 2=21-40%, 1=0-20% damage; details: evaluated after 13 days
Outline: as §1

Zea mays (ZEAMX) [10] = assay: Post-emergence Test, Zea mays (ZEAMX); parameters: key to percentage damage caused to the plant, ZEAMX (five-point scale): 5=81-100%, 4=61-80%, 3=41-60%, 2=21-40%, 1=0-20% damage; details: evaluated after 13 days
Outline: as §1

[11] = test system: Amaranthus retoflexus (AMARE); assay: Post-emergence Test, Amaranthus retoflexus (AMARE); parameters: key to percentage damage caused to the plant, AMARE (five-point scale): 5=81-100%, 4=61-80%, 3=41-60%, 2=21-40%, 1=0-20% damage; details: evaluated after 13 days
Outline: as §1

Setaria faberi (SETFA) [12] = assay: Pre-emergence Test, Setaria faberi (SETFA); details: evaluated after 13 days

With `CCn1c(Cn2cc(Cl)c(C)n2)cc(=O)c(C(=O)O)c1-c1ccc(Cl)c(Cl)c1` [Compound 89, 6-[(4-chloro-3-methyl-pyrazol-1-yl)methyl]-2-(3,4-dichlorophenyl)-1-ethyl-4-oxo-pyridine-3-carboxylic acid] the “Pre-emergence Test ECHCG, percentage damage caused to the plant (five-point scale)” value ([1]; 250 g/Ha (*)) was 4 (4=61-80%), the “Pre-emergence Test ECHCG, percentage damage caused to the plant (five-point scale)” value ([1]; 1000 g/ha) was 5 (5=81-100%) and the “percentage damage caused to the plant, AMAPA (five-point scale)” value ([2]; 250 g/Ha) was 1 (1=0-20%). The “percentage damage caused to the plant, AMAPA (five-point scale)” value ([2]; 1000 g/ha) was 3 (3=41-60%), the “Pre-emergence Test IPOHE, percentage damage caused to the plant (five-point scale)” value ([3]; 250 g/Ha (*)) was 3 (3=41-60%) and the “Pre-emergence Test IPOHE, percentage damage caused to the plant (five-point scale)” value ([3]; 1000 g/ha) was 4 (4=61-80%). The “Pre-emergence Test AMARE, percentage damage caused to the plant (five-point scale)” value ([4]; 250 g/Ha (*)) was 0, the “Pre-emergence Test AMARE, percentage damage caused to the plant (five-point scale)” value ([4]; 1000 g/ha) was 2 (2=21-40%) and the “Pre-emergence Test ZEAMX, percentage damage caused to the plant (five-point scale)” value (Zea mays (ZEAMX) [5]; 250 g/Ha (*)) was 0. The “Pre-emergence Test ZEAMX, percentage damage caused to the plant (five-point scale)” value (Zea mays (ZEAMX) [5]; 1000 g/ha) was 1 (1=0-20%), the “percentage damage caused to the plant, IPOHE (five-point scale)” value [6] was 3 (3=41-60%) and the “Pre-emergence Test AMAPA, percentage damage caused to the plant (five-point scale)” value ([7]; 250 g/Ha (*)) was 0. For the same molecule, the “Pre-emergence Test AMAPA, percentage damage caused to the plant (five-point scale)” value ([7]; 1000 g/ha) was 3 (3=41-60%), the “percentage damage caused to the plant, ECHCG (five-point scale)” value ([8]; 250 g/Ha) was 4 (4=61-80%) and the “percentage damage caused to the plant, ECHCG (five-point scale)” value ([8]; 1000 g/ha) was 4 (4=61-80%). For the same molecule, the “percentage damage caused to the plant, SETFA (five-point scale)” value (Setaria faberi (SETFA) [9]; 250 g/Ha) was 2 (2=21-40%), the “percentage damage caused to the plant, SETFA (five-point scale)” value (Setaria faberi (SETFA) [9]; 1000 g/ha) was 4 (4=61-80%) and the “percentage damage caused to the plant, ZEAMX (five-point scale)” value (Zea mays (ZEAMX) [10]; 250 g/Ha) was 0. The “percentage damage caused to the plant, ZEAMX (five-point scale)” value (Zea mays (ZEAMX) [10]; 1000 g/ha) was 3 (3=41-60%), the “percentage damage caused to the plant, AMARE (five-point scale)” value ([11]; 250 g/Ha) was 1 (1=0-20%) and the “percentage damage caused to the plant, AMARE (five-point scale)” value ([11]; 1000 g/ha) was 1 (1=0-20%). The “Pre-emergence Test SETFA, percentage damage caused to the plant (five-point scale)” value (Setaria faberi (SETFA) [12]; 250 g/Ha (*)) was 3 (3=41-60%) and the “Pre-emergence Test SETFA, percentage damage caused to the plant (five-point scale)” value (Setaria faberi (SETFA) [12]; 1000 g/ha) was 4 (4=61-80%).
`C=CCOc1ccn(Cc2cc(=O)c(C(=O)O)c(-c3ccc(Cl)c(Cl)c3)n2CC)n1` [Compound 163, 6-[(3-allyloxypyrazol-1-yl)methyl]-2-(3,4-dichlorophenyl)-1-ethyl-4-oxo-pyridine-3-carboxylic acid] was tested, and the “Pre-emergence Test ECHCG, percentage damage caused to the plant (five-point scale)” value ([1]; 250 g/Ha (*)) was 1 (1=0-20%), the “Pre-emergence Test ECHCG, percentage damage caused to the plant (five-point scale)” value ([1]; 1000 g/ha) was 4 (4=61-80%) and the “percentage damage caused to the plant, AMAPA (five-point scale)” value ([2]; 1000 g/ha) was 1 (1=0-20%). The “Pre-emergence Test IPOHE, percentage damage caused to the plant (five-point scale)” value ([3]; 250 g/Ha (*)) was 1 (1=0-20%), the “Pre-emergence Test IPOHE, percentage damage caused to the plant (five-point scale)” value ([3]; 1000 g/ha) was 3 (3=41-60%) and the “Pre-emergence Test AMARE, percentage damage caused to the plant (five-point scale)” value ([4]; 250 g/Ha (*)) was 0. For the same molecule, the “Pre-emergence Test AMARE, percentage damage caused to the plant (five-point scale)” value ([4]; 1000 g/ha) was 0, the “Pre-emergence Test ZEAMX, percentage damage caused to the plant (five-point scale)” value (Zea mays (ZEAMX) [5]; 250 g/Ha (*)) was 0 and the “Pre-emergence Test ZEAMX, percentage damage caused to the plant (five-point scale)” value (Zea mays (ZEAMX) [5]; 1000 g/ha) was 2 (2=21-40%). The “percentage damage caused to the plant, IPOHE (five-point scale)” value [6] was 2 (2=21-40%), the “Pre-emergence Test AMAPA, percentage damage caused to the plant (five-point scale)” value ([7]; 250 g/Ha (*)) was 0 and the “Pre-emergence Test AMAPA, percentage damage caused to the plant (five-point scale)” value ([7]; 1000 g/ha) was 0. The “percentage damage caused to the plant, ECHCG (five-point scale)” value ([8]; 1000 g/ha) was 3 (3=41-60%), the “percentage damage caused to the plant, SETFA (five-point scale)” value (Setaria faberi (SETFA) [9]; 1000 g/ha) was 4 (4=61-80%) and the “percentage damage caused to the plant, ZEAMX (five-point scale)” value (Zea mays (ZEAMX) [10]; 1000 g/ha) was 1 (1=0-20%). For the same molecule, the “percentage damage caused to the plant, AMARE (five-point scale)” value ([11]; 1000 g/ha) was 1 (1=0-20%), the “Pre-emergence Test SETFA, percentage damage caused to the plant (five-point scale)” value (Setaria faberi (SETFA) [12]; 250 g/Ha (*)) was 0 and the “Pre-emergence Test SETFA, percentage damage caused to the plant (five-point scale)” value (Setaria faberi (SETFA) [12]; 1000 g/ha) was 3 (3=41-60%).
